From patent US8329686B2, “Isatin analogues and uses therefor” (Washington University, priority 2006, dated 2012)

Experiments:
[1] = Biodistribution of [^18F]WC-II-89 in normal and cycloheximide-treated rats; assay type: in vivo, Sprague-Dawley rats
Description: All animal studies were performed in accordance with the regulations of the Washington University Institutional Animal Care and Use Committee. Mature male Sprague Dawley rats from Charles River Laboratories were briefly anesthetized with 1-2% isoflurane in oxygen. […] Treated rats also received 5 mg/kg cycloheximide in saline via the tail vein three hours prior to radiotracer administration in order to induce caspase-mediated liver apoptosis. At set time-points following radiopharmaceutical injection, rats were again anesthetized and euthanized. Target and non-target organs were removed, weighed, and the radioactivity was counted using a Beckman Gamma 8000 well counter. Standard dilutions of the injected dose were counted along with the samples and uptake was calculated and reported as percent injected dose per gram (% ID/g).
This model, which uses the protein synthesis inhibitor, cycloheximide (CHX), was previously used in the evaluation of radiolabeled annexin V analogs (37). Tissue morphology and TUNEL staining studies have shown that cycloheximide induces apoptosis in rat liver in both a dose-dependent and time-dependent manner. Within 3 hours of treatment with 1.5, 3, or 10 mg of cycloheximide per kilogram of body weight, apoptosis was induced in rat liver (35, 36). Therefore, we chose 3 hours treatment of 5 mg/kg to induce the maximum apoptosis in rat liver, expecting a high level of caspase-3 activation.
In general, the initial uptake was higher for CHX treated rats than control rats. However, the difference between control and treated rats was reduced with time with the exception of the liver and spleen.

[2] = MicroPET imaging of [^18F]WC-II-89 in control and cycloheximide-treated rat; assay type: in vivo; conditions: cycloheximide 3-hour pretreated rat versus control, 10-60 minutes post-i.v. injection
Description: MicroPET imaging studies were performed using a MicroPET Focus 220 and MicroPET Focus 120 scanner (Siemens/CTI, Knoxyille, Tenn.). A control and cycloheximide-treated (5 mg/kg, 3 hours pretreated) rat were anesthetized and a catheter inserted in the jugular vein. […] MicroPET images were reconstructed with OSEM-2D data analysis software package (Siemens/CTI, Knoxyille, Tenn.).
This was also confirmed by Western blot analysis of the rat livers following completion of the microPET imaging study.

% I.D./gram ([1]; blood, control rats, 5 min.): 2.70 ± 0.21 % I.D./gram | % I.D./gram ([1]; blood, control rats, 1 hr.): 0.11 ± 0.01 % I.D./gram | % I.D./gram ([1]; blood, control rats, 2 hr.): 0.06 ± 0.01 % I.D./gram | % I.D./gram ([1]; blood, cycloheximide-treated rats, 5 min.): 3.66 ± 0.40 % I.D./gram | % I.D./gram ([1]; blood, cycloheximide-treated rats, 1 hr.): 0.16 ± 0.01 % I.D./gram | % I.D./gram ([1]; blood, cycloheximide-treated rats, 2 hr.): 0.07 ± 0.00 % I.D./gram | % I.D./gram ([1]; bone, control rats, 5 min.): 0.44 ± 0.04 % I.D./gram | % I.D./gram ([1]; bone, control rats, 1 hr.): 0.13 ± 0.02 % I.D./gram | % I.D./gram ([1]; bone, control rats, 2 hr.): 0.15 ± 0.06 % I.D./gram | % I.D./gram ([1]; bone, cycloheximide-treated rats, 5 min.): 0.66 ± 0.06 % I.D./gram | % I.D./gram ([1]; bone, cycloheximide-treated rats, 1 hr.): 0.12 ± 0.01 % I.D./gram | % I.D./gram ([1]; bone, cycloheximide-treated rats, 2 hr.): 0.13 ± 0.03 % I.D./gram | uptake of radioactivity in bone ([1]; bone, defluorination): very low uptake | % I.D./gram ([1]; fat, control rats, 5 min.): 0.12 ± 0.02 % I.D./gram | % I.D./gram ([1]; fat, control rats, 1 hr.): 0.15 ± 0.02 % I.D./gram | % I.D./gram ([1]; fat, control rats, 2 hr.): 0.07 ± 0.01 % I.D./gram | % I.D./gram ([1]; fat, cycloheximide-treated rats, 5 min.): 0.09 ± 0.03 % I.D./gram | % I.D./gram ([1]; fat, cycloheximide-treated rats, 1 hr.): 0.14 ± 0.01 % I.D./gram | % I.D./gram ([1]; fat, cycloheximide-treated rats, 2 hr.): 0.09 ± 0.01 % I.D./gram | % I.D./gram ([1]; kidney, control rats, 5 min.): 1.25 ± 0.14 % I.D./gram | % I.D./gram ([1]; kidney, control rats, 1 hr.): 0.53 ± 0.07 % I.D./gram | % I.D./gram ([1]; kidney, control rats, 2 hr.): 0.18 ± 0.04 % I.D./gram | % I.D./gram ([1]; kidney, cycloheximide-treated rats, 5 min.): 1.18 ± 0.08 % I.D./gram | % I.D./gram ([1]; kidney, cycloheximide-treated rats, 1 hr.): 0.55 ± 0.05 % I.D./gram | % I.D./gram ([1]; kidney, cycloheximide-treated rats, 2 hr.): 0.23 ± 0.05 % I.D./gram | uptake in liver, treated rats higher than control ([1]; liver, 1-hour post-i.v. injection, cycloheximide-treated vs control): 94% | % I.D./gram ([1]; liver, control rats, 5 min.): 3.13 ± 0.26 % I.D./gram | % I.D./gram ([1]; liver, control rats, 1 hr.): 0.38 ± 0.06 % I.D./gram | % I.D./gram ([1]; liver, control rats, 2 hr.): 0.16 ± 0.02 % I.D./gram | % I.D./gram ([1]; liver, cycloheximide-treated rats, 5 min.): 4.02 ± 0.45 % I.D./gram | % I.D./gram ([1]; liver, cycloheximide-treated rats, 1 hr.): 0.73 ± 0.12 % I.D./gram | % I.D./gram ([1]; liver, cycloheximide-treated rats, 2 hr.): 0.22 ± 0.03 % I.D./gram | % I.D./gram ([1]; lung, control rats, 5 min.): 1.42 ± 0.34 % I.D./gram | % I.D./gram ([1]; lung, control rats, 1 hr.): 0.18 ± 0.03 % I.D./gram | % I.D./gram ([1]; lung, control rats, 2 hr.): 0.08 ± 0.01 % I.D./gram | % I.D./gram ([1]; lung, cycloheximide-treated rats, 5 min.): 2.08 ± 0.23 % I.D./gram | % I.D./gram ([1]; lung, cycloheximide-treated rats, 1 hr.): 0.23 ± 0.03 % I.D./gram | % I.D./gram ([1]; lung, cycloheximide-treated rats, 2 hr.): 0.11 ± 0.02 % I.D./gram | % I.D./gram ([1]; muscle, control rats, 5 min.): 0.14 ± 0.01 % I.D./gram | % I.D./gram ([1]; muscle, control rats, 1 hr.): 0.08 ± 0.01 % I.D./gram | % I.D./gram ([1]; muscle, control rats, 2 hr.): 0.03 ± 0.00 % I.D./gram | % I.D./gram ([1]; muscle, cycloheximide-treated rats, 5 min.): 0.09 ± 0.00 % I.D./gram | % I.D./gram ([1]; muscle, cycloheximide-treated rats, 1 hr.): 0.10 ± 0.02 % I.D./gram | % I.D./gram ([1]; muscle, cycloheximide-treated rats, 2 hr.): 0.06 ± 0.00 % I.D./gram | uptake in spleen, treated rats higher than control ([1]; spleen, 1-hour post-i.v. injection, cycloheximide-treated vs control): 184% | % I.D./gram ([1]; spleen, control rats, 5 min.): 1.14 ± 0.08 % I.D./gram | % I.D./gram ([1]; spleen, control rats, 1 hr.): 0.15 ± 0.05 % I.D./gram | % I.D./gram ([1]; spleen, control rats, 2 hr.): 0.06 ± 0.01 % I.D./gram | % I.D./gram ([1]; spleen, cycloheximide-treated rats, 5 min.): 2.24 ± 0.41 % I.D./gram | % I.D./gram ([1]; spleen, cycloheximide-treated rats, 1 hr.): 0.43 ± 0.05 % I.D./gram | % I.D./gram ([1]; spleen, cycloheximide-treated rats, 2 hr.): 0.11 ± 0.03 % I.D./gram | % I.D./gram ([1]; thymus, control rats, 5 min.): 0.23 ± 0.07 % I.D./gram | % I.D./gram ([1]; thymus, control rats, 1 hr.): 0.09 ± 0.01 % I.D./gram | % I.D./gram ([1]; thymus, control rats, 2 hr.): 0.04 ± 0.00 % I.D./gram | % I.D./gram ([1]; thymus, cycloheximide-treated rats, 5 min.): 0.38 ± 0.10 % I.D./gram | % I.D./gram ([1]; thymus, cycloheximide-treated rats, 1 hr.): 0.12 ± 0.02 % I.D./gram | % I.D./gram ([1]; thymus, cycloheximide-treated rats, 2 hr.): 0.06 ± 0.01 % I.D./gram
Structure (SMILES): O=C1C(=O)N(Cc2ccc(OCC[18F])cc2)c2ccc(S(=O)(=O)N3CCC[C@H]3COc3ccccc3)cc21 [[^18F]WC-II-89]
microPET uptake in the liver [2]: higher uptake
